In patent EP2782585B1, “ANTIVIRAL FORMULATIONS” (3B Pharmaceuticals, Inc., priority 2011, dated 2013):
pIC50: −log10 of the molar value.

Experiments:
HSV-1 = experiment: In vitro assay for anti-HSV-1 mRNA activity (QuantiGene Plex 2.0 bDNA) in infected primary endothelial cells; format: cell-based, HSV type 1; conditions: best-fit value, primary Adult Human Dermal Microvascular Endothelial Cells, overnight incubation; for pIC50: Human alphaherpesvirus 1, Endothelial cell, HSV-1 mRNA; for LogIC50 / HillSlope: variable slope fit; for LogIC50: concentrations in µM
Procedure: (§1) In vitro assays for anti-HSV-1 and anti-HSV-2 mRNA activity are described in Example 1. Confluent Vero cell monolayers were infected with HSV type 1 or HSV type 2 at a multiplicity of infection of 10 and the resultant virus was used to infect primary Adult Human Dermal Microvascular Endothelial Cells for 1 hour; the supernatant was replaced with fresh culture media and then incubated overnight in the presence of various concentrations of acyclovir, 2-deoxy-D-glucose or an equimolar combination of the two compounds. After overnight incubation, the cells were harvested, lysed, and subjected to QuantiGene Plex 2.0 assay (Panomics, Inc., Fremont, CA) for quantitative assay of HSV-1 and HSV-2 mRNA. The QuantiGene Plex 2.0 assay combines branched DNA (bDNA) signal amplification and multi-analyte profiling beads (xMAP®) technologies to enable the detection and quantitation of multiple mRNA targets simultaneously. Briefly, confluent Vero cell monolayers were infected with HSV type 1 or HSV type 2 at a multiplicity of infection of 10 and the resultant virus was used to infect primary Adult Human Dermal Microvascular Endothelial Cells for 1 hour and then the supernatant was replaced with fresh culture media and then incubated overnight in the presence of various concentrations of acyclovir, 2-deoxy-D-glucose or an equimolar combination of the two compounds. Generally, this assay is considered to be a more sensitive and specific assay (bDNA) for the final readout when compared to an ELISA. The ELISA method while easier, can lack specificity to determine the difference between HSV1 and HSV2. The bDNA assay is a hybridization-based method of target-specific RNA quantitation that amplifies signal rather than target RNA, using labeled DNA probes. The QuantiGene Plex 2.0 system utilizes fluorescent microspheres (Capture Beads) as a support to capture specific RNA molecules. The ability to quantify multiple target-specific RNA molecules in a single sample lies in the design of the Probe Sets. For each RNA molecule of interest, an oligonucleotide Probe Set containing three types of synthetic probes, Capture Extenders (CEs), Label Extenders (LEs), and Blockers (BLs) that hybridize and span contiguous sequences of the target RNA, is provided. The CEs discriminate among the different Capture Beads within the bead array while capturing, via cooperative hybridization, the target RNA. Signal amplification is mediated by DNA amplification molecules that hybridize to the tails of the LEs. Each amplification unit contains multiple hybridization sites for biotinylated Label Probes that bind Streptavidin-conjugated R-Phycoerythrin (SAPE). The resulting fluorescence signal associated with individual Capture Beads is read on a Luminex flow cytometer. Signal is reported as median fluorescence intensity (MFI) and is proportional to the number of target RNA molecules present in the sample. All compounds were run in triplicate for each concentration. Concentrations are expressed in micromolar (µM) concentrations. The IC50 (the drug concentration that reduces the number of virally infected cells by 50%) were determined by plotting the reduction in fluorescence (RLU) versus the drug concentration using Graph Pad Prism software. Specifically, the variable slope model was used to calculate the IC50s with the formula "Y=Bottom + (Top-Bottom)/(1+10^((LogIC50-X)*HillSlope))" using Graph Pad Prism software. The data is shown graphically in Figures 1 and 2. The error bars represent the standard error of the mean (SEM). Table 1. IC50 of Acyclovir and/or 2-Deoxy-D-glucose against HSV-1. […]

HSV-2 = experiment: In vitro assay for anti-HSV-2 mRNA activity (QuantiGene Plex 2.0 bDNA) in infected primary endothelial cells; format: cell-based, HSV type 2; conditions: best-fit value, primary Adult Human Dermal Microvascular Endothelial Cells, overnight incubation; for pIC50: Human alphaherpesvirus 2, Endothelial cell, HSV-2 mRNA; for LogIC50 / HillSlope: variable slope fit; for LogIC50: concentrations in µM
Procedure: as §1

[1] = local application compared with oral; cited from earlier work

| pIC50 (HSV-1) | pIC50 (HSV-2) | Compound | LogIC50 (HSV-1) | HillSlope (HSV-1) | LogIC50 (HSV-2) | HillSlope (HSV-2) | drug concentration in the skin after local application versus given orally [1] |
| --- | --- | --- | --- | --- | --- | --- | --- |
| 5.75 | 5.72 | Nc1nc2c(ncn2COCCO)c(=O)[nH]1 [Acyclovir, 9-(2-hydroxyethoxymethyl)guanine] | 0.2509 | -1.108 | 0.2805 | -1.113 | 2-3 times lower |
| 4.68 | 5.10 | O=CC[C@@H](O)[C@H](O)[C@H](O)CO [2 Deoxy D glucose, 2-deoxy-D-glucose] | 1.32 | -2.395 | 0.9029 | -3.957 |  |
